Data from patent publication US6399560B1, “Biocide and biocidal cloth containing a metal pyridinethione and additional biocide” (Novapharm Research (Australia) Pty Ltd., priority 1997, dated 2002).
Like-named read-outs stand apart in the source and are kept apart here.

Columns and labels:
[1] = cited from earlier work; for Oxidising Agents: compatibility with oxidising agents; for Reducing Agents: compatibility with reducing agents
[2] = test system: gram positive microorganisms; details: cited from earlier work
[3] = test system: gram negative bacteria; details: cited from earlier work
[4] = acute toxicity, cited from earlier work; for LD50 Subcut: subcutaneous
[5] = in vivo; cited from earlier work
[6] = test system: Pseudomonas Aeruginosa; assay: Effect of biocide-impregnated fabric on Pseudomonas Aeruginosa population; type: cell-based; details: zinc pyridinethione 0.85%, dichlorophen 0.85%, combination 0.5% + 0.5% of dry fabric weight
Source text: A biocidal cloth according to the invention was subjected to a standard quantitative test for microorganisms, “Assessment of Antibacterial Finishes on Textile Materials”: Test Method AATCC 100-1993. This test is specifically designed for the assessment of the biocidal properties of fabric treatments. These treatments are designed to kill microorganisms within the fabric, rather than on surfaces which come into contact with the fabric.
The weights are given relative to the weight of dry fabric.

[7] = test system: Fish; details: in vivo; cited from earlier work
[8] = cited from earlier work

Oc1ccc(Cl)cc1Cc1cc(Cl)ccc1O [DICHLOROPHEN, dichlorophen]
Oxidising Agents [1]: incompatible | Reducing Agents [1]: no effect | Effectiveness against gram positive [2]: particularly effective | Effectiveness against gram negative [3]: some grain negative activity | LD 50 IV [4]: 17 mg/kg | LD50 Dermal [4]: 5000 mg/kg | LD50 Oral [4]: 3300 mg/kg | LD50 Subcut [4]: >3000 mg/kg | Teratogenicity [5]: no effect | Change in bacterial population, DAY 1 (positive = increase, negative = decrease) [6]: +0.439 | Change in bacterial population, DAY 2 (positive = increase, negative = decrease) [6]: +2.12 | Fish Toxicity [7]: 23 mg/lt | Irritancy dermal ([8]; in vivo): Slight dermal | Irritancy eye ([8]; in vivo): Moderate eye

Oc1cc(Cl)ccc1Oc1ccc(Cl)cc1Cl [Triclosan, triclosan]
Effectiveness against gram positive [2]: particularly effective | Effectiveness against gram negative [3]: some grain negative activity

zinc pyridinethione
Oxidising Agents [1]: decomposes | Reducing Agents [1]: decomposes | Effectiveness against gram positive [2]: effective | Effectiveness against gram negative [3]: limited effectiveness | LD 50 IV [4]: 10 mg/kg | LD50 Dermal [4]: 100 mg/kg | LD50 Oral [4]: 160 mg/kg | LD50 Subcut [4]: 730 mg/kg | Teratogenicity [5]: reduced wt | Change in bacterial population, DAY 1 (positive = increase, negative = decrease) [6]: +0.845 | Change in bacterial population, DAY 2 (positive = increase, negative = decrease) [6]: +0.35 | Irritancy dermal ([8]; dermal / skin): Moderate dermal | Irritancy dermal ([8]; dermal / skin, listed as zinc pyridinethione): mildly irritating | Irritancy eye ([8]; eye): Severe eye | Irritancy eye ([8]; eye, listed as zinc pyridinethione): severely so
